Data as given in ChEMBL document CHEMBL4808186, “Structure-Based Discovery of Pyrimidine Aminobenzene Derivatives as Potent Oral Reversal Agents against P-gp- and BCRP-Mediated Multidrug Resistance” (J Med Chem, 2021).
pIC50: −log10 of the molar value.

Key:
K562 = test: Cytotoxicity against human K562 cells incubated for 48 hrs by MTT assay; type: functional, cell-based; settings: K562, 48 h
K562/A02 = test: Cytotoxicity against P-gp overexpressing human K562/A02 cells incubated for 48 hrs by MTT assay; type: functional, cell-based; settings: K562/A02, 48 h, read-out: IC50
[1] = n-Octanol/water partition coefficient, logP of the compound by UHPLC analysis; type: physicochemical
MDCK-II [2] = test: cells; settings: Canis lupus familiaris, 48 h
Description: Cytotoxicity against MDCK-II cells incubated for 48 hrs by MTT assay

MDCK-II [3] = test: cells; settings: Canis lupus familiaris, 48 h; remark: listed apart in the source
Description: Cytotoxicity against BCRP-overexpressing MDCK-II cells incubated for 48 hrs by MTT assay

Structure (SMILES) | pIC50 (K562) | pIC50 (K562/A02) | logP [1] | pIC50 (MDCK-II [2]) | pIC50 (MDCK-II [3])
COc1cc2c(cc1OC)CN(CCc1ccc(NC(=O)c3ccc(C)c(Nc4nccc(-c5cccnc5)n4)c3)cc1)CC2 | < 4.00 | 4.22 | 1.86 | < 4.00 | < 4.00
COc1cc2c(cc1OC)CN(CCNC(=O)c1ccc(C)c(Nc3nccc(-c4ccccn4)n3)c1)CC2 | < 4.00 | 4.05 | 1.71 | < 4.00 | 4.19
COc1cc2c(cc1OC)CN(CCNC(=O)c1ccc(C)c(Nc3nccc(-c4ccccc4O)n3)c1)CC2 | < 4.00 | 4.28 | 2.31 | 4.04 | –
COc1cc2c(cc1OC)CN(CCc1ccc(NC(=O)c3cc(=O)c4cc(F)ccc4o3)cc1)CC2 | < 4.00 | 4.09 | – | < 4.00 | < 4.00
COc1cc2c(cc1OC)CN(CCc1ccc(NC(=O)c3cc(=O)c4ccccc4o3)cc1)CC2 | < 4.00 | < 4.00 | 0.93 | < 4.00 | < 4.00
COc1cc2c(cc1OC)CN(CCc1ccc(NC(=O)c3cc(=O)c4ccc(C)cc4o3)cc1)CC2 | < 4.00 | < 4.00 | 1.87 | < 4.00 | 4.05
COc1cc2c(cc1OC)CN(CCc1ccc(NC(=O)c3cc(=O)c4c(O)cccc4o3)cc1)CC2 | < 4.00 | 4.34 | 1.78 | 4.07 | 4.16
COc1ccc(-c2ccnc(Nc3cc(C(=O)NCCN4CCc5cc(OC)c(OC)cc5C4)ccc3C)n2)cc1 | < 4.00 | 4.19 | 2.16 | < 4.00 | 4.26
COc1cc2c(cc1OC)CN(CCc1ccc(NC(=O)c3ccc(C)c(Nc4nccc(-c5ccco5)n4)c3)cc1)CC2 | < 4.00 | < 4.00 | 1.7 | < 4.00 | < 4.00
COc1cc2c(cc1OC)CN(CCNC(=O)c1ccc(C)c(Nc3nccc(-c4cccs4)n3)c1)CC2 | < 4.00 | 4.14 | 1.94 | < 4.00 | 4.21
COc1cc2c(cc1OC)CN(CCNC(=O)c1ccc(C)c(Nc3nccc(-c4cccnc4)n3)c1)CC2 | < 4.00 | < 4.00 | 0.8 | < 4.00 | < 4.00
COc1cc2c(cc1OC)CN(CCc1ccc(NC(=O)c3ccc(C)c(Nc4nccc(-c5cccs5)n4)c3)cc1)CC2 | < 4.00 | < 4.00 | 1.48 | < 4.00 | < 4.00
COc1cc2c(cc1OC)CN(CCNC(=O)c1ccc(C)c(Nc3nccc(-c4ccc(C)cc4)n3)c1)CC2 | 4.13 | 4.23 | – | < 4.00 | 4.38
COc1cc2c(cc1OC)CN(CCc1ccc(NC(=O)c3ccc(C)c(Nc4nccc(-c5ccc(F)cc5)n4)c3)cc1)CC2 | < 4.00 | < 4.00 | 1.19 | < 4.00 | < 4.00
COc1cc2c(cc1OC)CN(CCNC(=O)c1ccc(C)c(Nc3nccc(-c4ccc(F)cc4)n3)c1)CC2 | < 4.00 | 4.12 | 2.04 | < 4.00 | 4.24
COc1cc2c(cc1OC)CN(CCc1ccc(NC(=O)c3ccc(C)c(Nc4nccc(-c5ccc(C)cc5)n4)c3)cc1)CC2 | < 4.00 | – | – | < 4.00 | 4.21
COc1cc2c(cc1OC)CN(CCc1ccc(NC(=O)c3ccc(C)c(Nc4nccc(-c5ccccn5)n4)c3)cc1)CC2 | < 4.00 | 4.05 | 1.73 | < 4.00 | < 4.00
COc1cc2c(cc1OC)CN(CCc1ccc(NC(=O)c3ccc(C)c(Nc4nccc(-c5ccccc5)n4)c3)cc1)CC2 | < 4.00 | < 4.00 | 1.89 | < 4.00 | 4.10
COc1cc2c(cc1OC)CN(CCNC(=O)c1ccc(C)c(Nc3nccc(-c4cccc(O)c4)n3)c1)CC2 | < 4.00 | 4.24 | – | < 4.00 | 4.14
